ChEMBL document CHEMBL1142502, “An endoplasmic reticulum (ER) stress-suppressive compound and its analogues from the mushroom Hericium erinaceum” (Bioorg Med Chem, 2008)
Active and inactive are the calls of the source. The calls are words filed in the database; no cut-off is given here.

How the values were obtained:
Assay type in all cases: functional, cell-based
N2a [1] = test: Protection against tunicamycin-induced endoplasmic reticulum stress-dependent mouse Neuro2a cells death upto 10 ug/ml after 24 hrs by MTT assay
N2a [2] = test: Protection against thapsigargin-induced endoplasmic reticulum stress-dependent mouse Neuro2a cells death upto 10 ug/ml after 24 hrs by MTT assay
N2a [3] = test: Protection against tunicamycin-induced endoplasmic reticulum stress-dependent mouse Neuro2a cells death after 24 hrs by MTT assay
N2a [4] = test: Protection against thapsigargin-induced endoplasmic reticulum stress-dependent mouse Neuro2a cells death after 24 hrs by MTT assay

SMILES	Activity (N2a [1])	Activity (N2a [2])	Activity (N2a [3])	Activity (N2a [4])
COc1cc2c(c3c1CCC(C)(CC(=O)C=C(C)C)O3)COC2=O (racemic)	inactive	inactive	–	–
CCCCCCCCCCCCCCCC(=O)OCc1cc(OC)c2c(c1C=O)O[C@@](C)(CC(=O)C=C(C)C)[C@@H](O)C2 (relative stereo)	–	–	Dose-dependent effect	Dose-dependent effect
COc1cc2c(c(O)c1C/C=C(\C)CCC=C(C)C)C(=O)OC2	inactive	inactive	–	–
